Here are results for 33 compounds from patent US8802663B2, “Pyrazole oxadiazole derivatives as S1P1 agonists” (Merck Serono SA, priority 2009, dated 2014).

By EC50 is commonly meant the concentration giving half of the maximal effect. The low end stands for a more potent agent, the high end for a less potent agent. The term Ki denotes a measure of affinity in units of concentration, obtained from inhibition or displacement. A high value points to a looser hold on the target.

In test [1] the target is T1, S1P1 (Homo sapiens (Human), UniProt P21453). Put plainly: 35S-GTPγS binding, membranes from CHO cells expressing S1P1. It is filed as biochemical. To be noted: CHO cell membranes. On the technique in general: GTPγS is a poorly hydrolysed GTP analogue; its binding reports G protein activation.
T1 sequence (P21453 whole entry, species assumed): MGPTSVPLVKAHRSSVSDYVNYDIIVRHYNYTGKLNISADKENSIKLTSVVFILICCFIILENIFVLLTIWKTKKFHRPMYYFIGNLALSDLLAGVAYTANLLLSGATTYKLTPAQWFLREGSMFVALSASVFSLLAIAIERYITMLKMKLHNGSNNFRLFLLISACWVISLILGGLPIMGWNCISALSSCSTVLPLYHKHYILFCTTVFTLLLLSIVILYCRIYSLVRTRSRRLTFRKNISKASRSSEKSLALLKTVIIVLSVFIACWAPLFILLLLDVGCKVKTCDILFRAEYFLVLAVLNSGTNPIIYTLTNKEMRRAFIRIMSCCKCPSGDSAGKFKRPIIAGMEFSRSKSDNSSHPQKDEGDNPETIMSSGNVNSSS
Test [2] addresses T1, S1P1. The test is described as follows: Receptor binding assay, [33P]sphingosine 1-phosphate, membranes from CHO cells expressing S1P1. Particulars: CHO cell membranes, 25 pM [33P]sphingosine 1-phosphate. How it is done: Receptor binding assay: Membranes were prepared from CHO cells expressing S1P1 or S1P3 for use in ligand and […] binding studies. Cells were suspended in 50 mM TRIS, pH 7.4, 2 mM EDTA, 250 mM Sucrose (buffer A) and 1× Complete protease inhibitor cocktail (Roche), and disrupted at 4° C. by N2 decompression using a cell disruption bomb (Parr Instrument). Following centrifugation at 1000 RPM for 10 min at 4° C., the supernatant was suspended in buffer A and centrifuged again at 19000 RPM for 60 min at 4° C. The pellet was then suspended in 10 mM HEPES, pH 7.4, 1 mM EDTA, 250 mM Sucrose (Buffer B), and 1× Complete EDTA-free protease inhibitor cocktail and homogenized using a potter. Membranes were flash frozen in liquid N2 and stored at −80° C. [33P]sphingosine 1-phosphate (3000 Ci/mmol; American Radiolabeled Chemicals, Inc.) was added to test compounds in DMSO. Membranes and WGA SPA beads (GE Healthcare) were added to give a final volume of 100 μl in 96-well plates with assay concentrations of 25 pM or 10 pM [33P]sphingosine 1-phosphate (respectively for S1P1 or S1P3), 50 mM HEPES, pH 7.5, 5 mM MgCl2, 100 mM NaCl, 0.4% fatty acid-free BSA, 1-5 μg/well of proteins and 100 μg/well of WGA SPA beads. Binding was performed for 60 min at RT on a shaker and bound radioactivity was measured on a PerkinElmer 1450 MicroBeta counter. Specific binding was calculated by subtracting remaining radioactivity in the presence of 1000-fold excess of unlabeled SIP. Binding data were analyzed using the GraphPad Prism program.

As to “4-[4-[3-(2,5-difluorophenyl)-1,2,4-oxadiazol-5-yl]-1-(2-fluorophenyl)-1H-pyrazol-5-yl]pyridine [Example 8]”, a half-maximal effect on S1P1 [1] (EC50) was put at 3 nM. Besides, the Ki at S1P1 [2] came out at 3 nM. `Fc1ccc(F)c(-c2noc(-c3cnn(-c4ccccc4)c3-c3ccccc3)n2)c1` [Example 3, 3-(2,5-difluorophenyl)-5-(1,5-diphenyl-1H-pyrazol-4-yl)-1,2,4-oxadiazole] returned an EC50 at S1P1 [1] of 77 nM. Moreover, the Ki at S1P1 [2] was 8 nM. In turn, `Cc1ccccc1-n1ncc(-c2nc(-c3cc(F)ccc3F)no2)c1-c1ccccc1` [Example 5, 3-(2,5-difluorophenyl)-5-(5-phenyl-1-o-tolyl-1H-pyrazol-4-yl)-1,2,4-oxadiazole] returned an EC50 at S1P1 [1] of 255 nM. Further, on S1P1 [2], the affinity, expressed as Ki, was 13 nM. Regarding `Fc1ccc(-n2ncc(-c3nc(-c4cc(F)ccc4F)no3)c2-c2ccccc2)cc1` [Example 6, 3-(2,5-difluorophenyl)-5-(1-(4-fluorophenyl)-5-phenyl-1H-pyrazol-4-yl)-1,2,4-oxadiazole], the EC50 on S1P1 [1] was found to be 235 nM. The Ki on S1P1 [2] turned out to be 13 nM. Regarding `CC(C)Cn1ncc(-c2nc(-c3cc(F)ccc3F)no2)c1-c1ccccc1` [Example 12, 3-(2,5-difluorophenyl)-5-(1-isobutyl-5-phenyl-1H-pyrazol-4-yl)-1,2,4-oxadiazole], on S1P1 [1], the response was half-maximal at 36 nM (EC50). The compound also had a Ki on S1P1 [2] of 7 nM. On S1P1 [1], `CCOC(=O)Cn1ncc(-c2nc(-c3cc(F)ccc3F)no2)c1-c1ccccc1` [Example 13, ethyl {4-[3-(2,5-difluorophenyl)-1,2,4-oxadiazol-5-yl]-5-phenyl-1H-pyrazol-1-yl}acetate] registered an EC50 of 96 nM. The same compound yielded a Ki at S1P1 [2] of 23 nM. On to `CC(C)Cn1ncc(-c2nc(-c3cc(F)ccc3F)no2)c1-c1ccncc1` [Example 19, 4-{4-[3-(2,5-difluorophenyl)-1,2,4-oxadiazol-5-yl]-1-isobutyl-1H-pyrazol-5-yl}pyridine], for which the 50% effective concentration (EC50) at S1P1 [1] came to 18 nM. At S1P1 [2], this compound returned a Ki of 9 nM. The corresponding values for `Fc1ccc(F)c(-c2noc(-c3cnn(C4CCCCC4)c3-c3ccncc3)n2)c1` [Example 23, 5-(1-cyclohexyl-5-(pyridin-4-yl)-1H-pyrazol-4-yl)-3-(2,5-difluorophenyl)-1,2,4-oxadiazole] are 4 nM and 5 nM. Take `COCc1c(-c2nc(-c3ccc(/C=C/C(=O)O)cc3)no2)cnn1C1CCCCC1` [Example 98, (E)-3-(4-(5-(1-cyclohexyl-5-(methoxymethyl)-1H-pyrazol-4-yl)-1,2,4-oxadiazol-3-yl)phenyl)acrylic acid]: affinity at S1P1 [2] was put at a Ki of 409 nM. Turning to `CC(C)(C)Cn1ncc(-c2nc(-c3ccc(CN4CC(C(=O)O)C4)cc3)no2)c1-c1ccncc1` [Example 105, 1-(4-(5-(1-neopentyl-5-(pyridin-4-yl)-1H-pyrazol-4-yl)-1,2,4-oxadiazol-3-yl)benzyl)azetidine-3-carboxylic acid], at S1P1 [1], the midpoint of the response, the EC50, lay at 42 nM. Also, at S1P1 [2], the affinity, expressed as Ki, was 34 nM.

`COCc1c(-c2nc(-c3ccc(CCN4CCC(C(=O)O)CC4)cc3)no2)cnn1C1CCCCC1` [Example 130, 1-(4-(5-(1-cyclohexyl-5-(methoxymethyl)-1H-pyrazol-4-yl)-1,2,4-oxadiazol-3-yl)phenethyl)piperidine-4-carboxylic acid] registered a concentration giving a half-maximal response (EC50) on S1P1 [1] of 36 nM. On S1P1 [1], `COCc1c(-c2nc(-c3ccc(OC4CCNC4)cc3)no2)cnn1C1CCCCC1` (stereo not drawn) [Example 131, 5-(1-cyclohexyl-5-(methoxymethyl)-1H-pyrazol-4-yl)-3-(4-(pyrrolidin-3-yloxy)phenyl)-1,2,4-oxadiazole] showed an EC50 of 181 nM.

As to `O=C(O)C1CCN(Cc2ccc(-c3noc(-c4cnn(C5CCCCC5)c4C4CCOCC4)n3)cc2)CC1` [Example 132, 1-(4-(5-(1-cyclohexyl-5-(tetrahydro-2H-pyran-4-yl)-1H-pyrazol-4-yl)-1,2,4-oxadiazol-3-yl)benzyl)piperidine-4-carboxylic acid], a half-maximal effect on S1P1 [1] (EC50) was put at 18 nM. At S1P1 [2], `COCc1c(-c2nc(-c3ccc(COCCCC(=O)O)cc3)no2)cnn1C1CCCCC1` [Example 133, 4-(4-(5-(1-cyclohexyl-5-(methoxymethyl)-1H-pyrazol-4-yl)-1,2,4-oxadiazol-3-yl)benzyloxy)butanoic acid] showed an inhibition constant (Ki) of 122 nM. For `COCc1c(-c2nc(-c3ccc(OCCCC(=O)O)cc3)no2)cnn1C1CCCCC1` [Example 134, 4-(4-(5-(1-cyclohexyl-5-(methoxymethyl)-1H-pyrazol-4-yl)-1,2,4-oxadiazol-3-yl)Phenoxy)butanoic acid], the inhibitory constant (Ki) at S1P1 [2] was found to be 128 nM. At S1P1 [2], `COCc1c(-c2nc(-c3cccc(COCC(=O)O)c3)no2)cnn1C1CCCCC1` [Example 135, {3-[5-(1-Cyclohexyl-5-methoxymethyl-1H-pyrazol-4-yl)-[1,2,4]oxadiazol-3-yl]-benzyloxy}-acetic acid] showed an inhibition constant (Ki) of 41.5 nM. `c1cnn(Cc2ccc(-c3noc(-c4cnn(C5CCCCC5)c4-c4ccncc4)n3)cc2)c1` [Example 137, 4-{2-Cyclohexyl-4-[3-(4-pyrazol-1-ylmethyl-phenyl)-[1,2,4]oxadiazol-5-yl]-2H-pyrazol-3-yl}-pyridine] yielded a Ki at S1P1 [2] of 5.16 nM. This Ki lies about 8-fold lower than the previous one.

On S1P1 [2], `COCc1c(-c2nc(-c3cccc(CO)c3)no2)cnn1C1CCCCC1` [Example 138] came in with a Ki of 25 nM. This Ki lies about 4.8-fold higher than the previous one. `COCc1c(-c2nc(-c3ccc(CCC(=O)O)cc3)no2)cnn1C1CCCCC1` [Example 139] yielded a Ki at S1P1 [2] of 393 nM. Still for that read-out and setting: the figure for `COCc1c(-c2nc(-c3cccc(COCCC(=O)O)c3)no2)cnn1C1CCCCC1` [Example 141] is 180 nM; for `COCc1c(-c2nc(-c3cccc(/C=C/C(=O)O)c3)no2)cnn1C1CCCCC1` [Example 142] it is 191 nM; for `COCc1c(-c2nc(-c3cccc(COCC(=O)O)c3)no2)cnn1C1CCCCC1` [Example 143] it is 41.5 nM. `COCc1c(-c2nc(-c3cccc(OCCCC(=O)O)c3)no2)cnn1C1CCCCC1` [Example 144]: the affinity at S1P1 [2], expressed as Ki, was 31 nM. Take `COCc1c(-c2nc(-c3cccc(CCC(=O)O)c3)no2)cnn1C1CCCCC1` [Example 145]: the affinity on S1P1 [2], expressed as Ki, was 116 nM. This Ki lies about 3.7-fold higher than the previous one. The same measure, in the same setting: the figure for `COCc1c(-c2nc(-c3ccc(C(=O)NCCC(=O)O)cc3)no2)cnn1C1CCCCC1` [Example 146] is 9.9 nM; for `COCc1c(-c2nc(-c3cccc(C(=O)NCCC(=O)O)c3)no2)cnn1C1CCCCC1` [Example 147] it is 257 nM.

In the case of `c1cnn(Cc2ccc(-c3noc(-c4cnn(C5CCCCC5)c4-c4ccncc4)n3)cc2)c1` [Example 149], at S1P1 [2], the Ki is 5.2 nM. Compared with the last compound, the Ki is about 49-fold lower. The same measure, in the same setting: the figure for `c1cc(-c2c(-c3nc(-c4ccc(Cn5ncnn5)cc4)no3)cnn2C2CCCCC2)ccn1` [Example 150] is 3.4 nM. Compound `c1cc(-c2c(-c3nc(-c4ccc(CCn5cncn5)cc4)no3)cnn2C2CCCCC2)ccn1` [Example 151] returned a Ki on S1P1 [2] of 4.6 nM. For the compound `N#CCc1ccc(-c2noc(-c3cnn(C4CCCCC4)c3-c3ccncc3)n2)cc1` [Example 152], affinity on S1P1 [2] was put at a Ki of 3.3 nM. This Ki and that of the compound before are within 1.5-fold of each other. On S1P1 [2], `O=C(O)c1cnn(Cc2ccc(-c3noc(-c4cnn(C5CCCCC5)c4-c4ccncc4)n3)cc2)c1` [Example 153] yielded a Ki of 28 nM. As for `c1cc(-c2c(-c3nc(-c4ccc(Cc5nnn[nH]5)cc4)no3)cnn2C2CCCCC2)ccn1` [Example 154], affinity at S1P1 [2] was put at a Ki of 76 nM. `c1cc(-c2c(-c3nc(-c4ccc(Cn5cnnn5)cc4)no3)cnn2C2CCCCC2)ccn1` [Example 155]: the Ki at S1P1 [2] amounted to 6 nM.
